Measured values as given in paper PMC10960024, “Diindoles produced from commensal microbiota metabolites function as endogenous CAR/Nr1i3 ligands” (Nature Communications, 2024).

Tests used:
[1] = Liver-to-body weight ratio after treatment; format: in vivo
Method: (§1) 12–15 week-old C57BL/6 J mice were obtained from Jackson Laboratories and were housed on a standard 12 h light/dark cycle. Nr1i3^−/− mice with C57BL/6 J background were obtained from David Moore’s lab (PMID: 11057673) at Baylor College of Medicine, and used at 13–26 weeks of age. Wild-type male, female and Nr1i3^−/− male mice were used in this study, due to known sex-specific CAR activities. Mice were housed in groups of 2–5 mice per cage on a standard 12 h light/dark cycle and fed with rodent chow diet (Inotiv, Teklad rodent diet 2918). Temperature was maintained at 21 °C with a range of 21–24 °C and humidity at 16–51%. National Institute of Health guidelines for the care and use of laboratory animals were followed with all experiments performed as directed by the Institutional Animal Care and Use Committee at the University of Illinois, Urbana-Champaign (UIUC, IACUC protocol: 22183). Mice were acclimatized to the UIUC mouse facility for 2 weeks prior to experiments. DIM and DIE were dissolved in 5% DMSO in corn oil and injected intraperitoneally at 25 mg/kg once daily for three days. After 4 h of the third injection, mice were sacrificed to collect serum, livers and intestines. TCPOBOP was dissolved in corn oil and injected intraperitoneally at 3 mg/kg once and the livers collected after 3 days for further studies. When used to block CAR activity, 100 mg/kg androstenol was injected intraperitoneally 15 min prior to the first DIM or DIE treatment. RNA from mice livers was isolated using TRIzol (Invitrogen) reagent using the manufacturer’s instructions. 3–5 µg of RNA was used to synthesize cDNA with random primers (NEBioLabs) and Maxima Reverse Transcriptase kits (Thermo Fisher Scientific). cDNA was further diluted, and 50 ng was used for SYBR green (Thermo Fisher Scientific) based qRT-PCR. Relative gene expression was calculated by the delta Ct method and normalized to 36b4 levels as loading controls. qPCR primers for gene expression analysis are listed in Supplementary Table 3.

hCAR1+A = target: T1, hCAR1+A (Homo sapiens, UniProt Q14994, INS274A); assay: HepG2 CYP2B6-2.2 kb reporter with hCAR1+A; format: cell-based; conditions: 1, 5 and 10 µM, 24 h
T1 construct: expressed in transfected cells; host or cells: HepG2 (ATCC, HB-8065)
T1 sequence (Q14994 with tags, fused parts or gaps isoform Q14994-2 INS270A): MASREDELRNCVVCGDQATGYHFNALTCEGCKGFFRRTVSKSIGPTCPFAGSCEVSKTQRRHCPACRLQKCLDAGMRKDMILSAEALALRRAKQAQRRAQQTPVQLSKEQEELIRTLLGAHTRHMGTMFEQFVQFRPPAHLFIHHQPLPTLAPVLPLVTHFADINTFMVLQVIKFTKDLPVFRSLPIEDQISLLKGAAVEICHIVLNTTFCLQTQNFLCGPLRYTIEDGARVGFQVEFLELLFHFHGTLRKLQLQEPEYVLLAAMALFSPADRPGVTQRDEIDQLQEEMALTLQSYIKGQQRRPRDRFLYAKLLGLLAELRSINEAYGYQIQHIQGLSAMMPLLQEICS
T1 sequence (P19793 whole entry partner): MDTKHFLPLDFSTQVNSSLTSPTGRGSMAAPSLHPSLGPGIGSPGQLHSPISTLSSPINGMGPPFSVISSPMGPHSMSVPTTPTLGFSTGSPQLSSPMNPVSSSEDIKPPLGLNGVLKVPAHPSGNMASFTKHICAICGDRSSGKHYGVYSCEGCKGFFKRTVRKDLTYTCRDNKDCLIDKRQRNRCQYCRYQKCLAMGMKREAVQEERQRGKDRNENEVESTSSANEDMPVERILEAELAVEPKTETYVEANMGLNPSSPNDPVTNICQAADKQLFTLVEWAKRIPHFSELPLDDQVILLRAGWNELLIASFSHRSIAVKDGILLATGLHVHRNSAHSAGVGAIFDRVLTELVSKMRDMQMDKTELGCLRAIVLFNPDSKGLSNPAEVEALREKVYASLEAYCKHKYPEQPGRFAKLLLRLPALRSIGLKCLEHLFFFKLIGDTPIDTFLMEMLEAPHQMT
Excerpt: Activities of both firefly and renilla luciferases were detected using a Dual-Luciferase Kit (Promega).

[2] = target: T2, His-tagged CAR-LBD-SRC1 fusion protein (Homo sapiens, UniProt Q14994); assay: Isothermal titration calorimetry (ITC); format: binding; conditions: 25 °C; ligand 50 μM; mean of two independent experiments
T2 construct: The human CAR LBD (Lys^108 – Ser^352) was amplified by PCR from cDNA; HIS6; made in house; host or cells: E. coli BL21(DE3)
T2 sequence (Q14994 108-352): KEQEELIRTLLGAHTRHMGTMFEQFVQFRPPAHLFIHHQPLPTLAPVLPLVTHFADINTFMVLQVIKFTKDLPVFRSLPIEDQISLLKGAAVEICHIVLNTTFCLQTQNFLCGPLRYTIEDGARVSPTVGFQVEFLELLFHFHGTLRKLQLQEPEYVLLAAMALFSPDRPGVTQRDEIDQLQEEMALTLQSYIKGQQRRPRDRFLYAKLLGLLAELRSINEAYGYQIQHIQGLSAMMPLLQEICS
Method: Purified hCAR-SRC1 protein (200–250 µM) was dissolved in 120 μL of PBS and supplemented with 0.5% DMSO. All experiments were performed in a MicroCal Auto-iTC200 instrument (Malvern Panalytical, Marlvern, United Kingdom) at 25 °C. Ligands were used at a concentration of 50 μM. Protein was titrated into cells in a series of 19 injections (injection 1 = 0.4 µL, injection 2–19 = 2 µL) 180 s apart. Control experiments performed by injection of the potein into […] yielded insignificant heats of dilution, and heat responses were subtracted. Integrated heat effects were analyzed using Microcal Origin 7 software (Malvern Instruments).

Liver histology (H&E) = format: in vivo
Method: as §1, with “3. […]” for “3.”

hCAR = target: T3, hCAR (Homo sapiens, UniProt Q14994); assay: hCAR nuclear translocation in primary human hepatocytes (Ad/EYFP-hCAR); format: cell-based; conditions: PHHs from two individuals; 10 µM, 8 h
T3 construct: expressed in transfected cells; host or cells: primary human hepatocytes infected with Ad/EYFP-hCAR
T3 sequence (Q14994 1-352): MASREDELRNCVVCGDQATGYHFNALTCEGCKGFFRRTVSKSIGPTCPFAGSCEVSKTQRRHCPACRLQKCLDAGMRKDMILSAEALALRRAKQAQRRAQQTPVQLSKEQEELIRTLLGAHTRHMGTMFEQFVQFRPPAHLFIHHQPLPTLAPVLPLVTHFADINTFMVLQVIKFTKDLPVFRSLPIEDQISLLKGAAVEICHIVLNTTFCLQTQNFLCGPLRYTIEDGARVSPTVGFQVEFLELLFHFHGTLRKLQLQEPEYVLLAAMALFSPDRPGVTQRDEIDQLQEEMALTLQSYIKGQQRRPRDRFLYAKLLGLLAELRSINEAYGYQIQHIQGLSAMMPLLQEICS
Method: 24 h after seeding at 0.25 × 10^6 cells/well in 24-well biocoat plate, PHHs were infected with 2 µL of adenoviral enhanced yellow fluorescent protein-tagged hCAR (Ad/EYFP-hCAR) followed by treatment with 0.1% DMSO, phenobarbital (PB) (1 mM), DIM (10 µM) or DIE (10 µM) for 8 h. Cells were washed with phosphate-buffered saline and fixed for 30 min with 4% formaldehyde at room temperature and then stained with 4,6-diamidine-2-phenylindole dihydrochloride for 30 min after washing three times with phosphate-buffered saline. The subcellular localization of hCAR and nuclei were visualized using a Nikon Eclipse Ti-E inverted fluorescence microscope (Nikon, Edgewood, NY) in YFP/FITC and DAPI fluorescence channels. Compounds were added to the plate in triplicate and results analyzed as detailed below with z-factors calculated as previously described.

Compound | liver weight / liver-to-body weight ratio ([1]; post-treatment, compared to control) | hCAR1+A activity (CYP2B6 reporter) (hCAR1+A) | Kd [2] [nM] | liver histology (H&E) findings (Liver histology (H&E); after treatment) | hCAR nuclear relocation (hCAR) | liver weight / liver-to-body weight ratio ([1]; mouse, in vivo) | liver histology (H&E) findings (Liver histology (H&E); mouse, in vivo)
CC(c1c[nH]c2ccccc12)c1c[nH]c2ccccc12 [DIE, 3,3’-diindolylethane] | no significant changes | significantly boost hCAR1+A activity | 250 | no increase in hepatocyte size, cytoplasmic swelling, obvious damage or inflammation | efficiently promote hCAR nuclear relocation | – | –
c1ccc2c(Cc3c[nH]c4ccccc34)c[nH]c2c1 [DIM, diindolylmethane] | – | significantly boost hCAR1+A activity | 3900 | – | efficiently promote hCAR nuclear relocation | no significant changes | no increase in hepatocyte size, cytoplasmic swelling, obvious damage or inflammation
